Paper PMC4368042 (ACS Chemical Neuroscience, 2015)
“Also recorded” adds a separate entry of the source.

Key:
[1] = biological target: hM3Dq (Homo sapiens, UniProt P20309, A239G/Y149C); assay: cell-based; format: cell-based; details: for hM3Dq potency decrease on replacing methyl with n-propyl: 4d vs 4a, 5d vs 5a; for Emax: read-out: hM3Dq Emax (relative to CNO)
[2] = biological target: hM3 (native human M3 receptor) (Homo sapiens, UniProt P20309); assay: cell-based; format: cell-based; details: for Emax: read-out: hM3 Emax (relative to acetylcholine)
[3] = biological target: T1, 5HT2C (Homo sapiens, UniProt P28335); assay: 5HT2C radioligand binding assay; details: for Ki: Ki 5HT2C, radioligand binding
T1 sequence (P28335 33-458): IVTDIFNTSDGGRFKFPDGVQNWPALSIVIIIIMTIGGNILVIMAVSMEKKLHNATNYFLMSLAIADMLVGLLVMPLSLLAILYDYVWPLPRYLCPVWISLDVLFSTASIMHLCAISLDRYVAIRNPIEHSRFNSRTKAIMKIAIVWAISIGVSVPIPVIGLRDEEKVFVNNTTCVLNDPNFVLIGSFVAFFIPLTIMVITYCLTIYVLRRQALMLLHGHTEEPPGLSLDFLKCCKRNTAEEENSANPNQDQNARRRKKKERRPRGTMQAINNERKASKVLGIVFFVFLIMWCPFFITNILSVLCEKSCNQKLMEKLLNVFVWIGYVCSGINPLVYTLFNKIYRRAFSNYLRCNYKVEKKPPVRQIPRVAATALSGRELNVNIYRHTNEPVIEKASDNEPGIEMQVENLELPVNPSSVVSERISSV

[4] = biological target: T2, α1A (Homo sapiens, UniProt P35348); assay: α1A radioligand binding assay; details: for Ki: Ki α1A, radioligand binding
T2 sequence (P35348 1-466): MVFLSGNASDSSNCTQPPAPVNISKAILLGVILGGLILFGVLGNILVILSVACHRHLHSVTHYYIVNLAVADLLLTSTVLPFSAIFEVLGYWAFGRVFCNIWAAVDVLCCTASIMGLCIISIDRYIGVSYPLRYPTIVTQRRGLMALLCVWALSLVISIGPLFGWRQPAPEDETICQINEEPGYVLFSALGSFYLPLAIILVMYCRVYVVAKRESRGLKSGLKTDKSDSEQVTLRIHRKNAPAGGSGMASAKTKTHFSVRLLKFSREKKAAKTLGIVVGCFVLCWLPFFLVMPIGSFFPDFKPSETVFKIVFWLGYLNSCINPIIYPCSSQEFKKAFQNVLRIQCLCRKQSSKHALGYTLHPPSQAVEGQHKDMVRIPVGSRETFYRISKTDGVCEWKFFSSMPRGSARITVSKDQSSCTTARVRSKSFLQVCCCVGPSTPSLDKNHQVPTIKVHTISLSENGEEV

[5] = biological target: H1 (Homo sapiens, UniProt P35367); assay: biochemical; format: binding; details: for Ki: Ki H1, radioligand binding
[6] = biological target: 5HT2A (Homo sapiens, UniProt P28223); assay: biochemical; format: binding; details: for Ki: Ki 5HT2A, radioligand binding
Chain of 5HT2A (P28223 whole entry, species assumed): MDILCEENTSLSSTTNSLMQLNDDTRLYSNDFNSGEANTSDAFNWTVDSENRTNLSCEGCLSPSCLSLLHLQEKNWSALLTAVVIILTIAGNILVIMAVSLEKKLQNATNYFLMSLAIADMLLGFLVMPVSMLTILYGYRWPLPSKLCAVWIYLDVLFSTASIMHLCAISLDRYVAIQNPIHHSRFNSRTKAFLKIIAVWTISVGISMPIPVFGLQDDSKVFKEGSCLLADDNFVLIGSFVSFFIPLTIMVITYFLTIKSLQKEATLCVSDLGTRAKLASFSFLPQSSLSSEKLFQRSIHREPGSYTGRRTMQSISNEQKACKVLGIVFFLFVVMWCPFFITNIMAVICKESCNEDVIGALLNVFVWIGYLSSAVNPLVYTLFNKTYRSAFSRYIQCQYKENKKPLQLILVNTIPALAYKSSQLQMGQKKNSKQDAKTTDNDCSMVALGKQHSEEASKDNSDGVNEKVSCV

Chain of hM3Dq (P20309 whole entry Y149C/A239G): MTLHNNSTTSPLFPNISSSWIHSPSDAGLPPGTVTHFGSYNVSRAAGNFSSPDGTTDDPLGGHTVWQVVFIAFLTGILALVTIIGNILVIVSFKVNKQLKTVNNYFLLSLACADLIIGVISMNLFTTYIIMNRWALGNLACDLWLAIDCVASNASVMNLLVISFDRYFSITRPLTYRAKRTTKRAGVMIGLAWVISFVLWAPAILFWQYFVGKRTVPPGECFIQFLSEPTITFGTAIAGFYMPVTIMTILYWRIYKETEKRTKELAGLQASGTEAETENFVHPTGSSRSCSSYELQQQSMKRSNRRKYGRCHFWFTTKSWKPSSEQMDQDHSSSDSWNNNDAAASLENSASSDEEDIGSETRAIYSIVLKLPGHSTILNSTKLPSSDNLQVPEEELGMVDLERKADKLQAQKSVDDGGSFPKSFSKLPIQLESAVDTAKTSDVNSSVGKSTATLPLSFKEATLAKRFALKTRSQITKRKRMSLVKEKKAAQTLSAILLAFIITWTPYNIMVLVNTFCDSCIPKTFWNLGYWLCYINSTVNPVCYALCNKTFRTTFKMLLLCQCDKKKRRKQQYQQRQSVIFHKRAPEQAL
Chain of H1 (P35367 whole entry): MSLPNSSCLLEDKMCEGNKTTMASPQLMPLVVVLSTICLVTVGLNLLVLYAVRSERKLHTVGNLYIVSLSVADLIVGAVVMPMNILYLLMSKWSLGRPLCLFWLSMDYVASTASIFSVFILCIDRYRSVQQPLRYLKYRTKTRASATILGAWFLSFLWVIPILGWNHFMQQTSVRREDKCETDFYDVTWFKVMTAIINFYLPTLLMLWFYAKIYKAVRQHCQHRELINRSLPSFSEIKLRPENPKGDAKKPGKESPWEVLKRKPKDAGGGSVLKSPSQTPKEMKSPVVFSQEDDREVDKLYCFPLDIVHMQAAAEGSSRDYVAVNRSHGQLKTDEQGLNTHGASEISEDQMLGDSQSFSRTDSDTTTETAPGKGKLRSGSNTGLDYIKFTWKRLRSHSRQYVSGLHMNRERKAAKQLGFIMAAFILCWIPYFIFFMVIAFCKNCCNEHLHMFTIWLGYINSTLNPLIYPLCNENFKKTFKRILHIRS
Chain of hM3 (native human M3 receptor) (P20309 whole entry): as the sequence (P20309 whole entry Y149C/A239G) above, with C149Y, G239A counted along it

Compound: O=C1CN(C2=Nc3cc(Cl)ccc3Nc3ccccc32)CCN1 [Compound 7, 4-(8-Chloro-5H-dibenzo[b,e][1,4]diazepin-11-yl)piperazin-2-one]
- EC50 [1]: > 30000 nM
- agonist activity for hM3Dq (in words) [1]: did not display any agonist activity
- EC50 [2]: > 30 µM
- agonist activity for hM3 (in words) [2]: did not activate

Compound: CCCN1CCN(C2=Nc3cc(Cl)ccc3Nc3ccccc32)CC1 [Compound 4d, 8-Chloro-11-(4-propylpiperazin-1-yl)-5H-dibenzo[b,e][1,4]diazepine]
- EC50 [1]: 71 nM
- hM3Dq potency decrease on replacing methyl with n-propyl [1]: approximately 70 fold
- Emax [1]: 50%
- EC50 [2]: > 30 µM

Compound: NC1(C(=O)O)CCN(C2=Nc3cc(Cl)ccc3Nc3ccccc32)CC1 [Compound 10, 4-Amino-1-(8-chloro-5H-dibenzo[b,e][1,4]diazepin-11-yl)piperidine-4-carboxylic acid]
- EC50 [1]: > 30000 nM
- agonist activity for hM3Dq (in words) [1]: did not activate
- EC50 [2]: > 30 µM
- agonist activity for hM3 (in words) [2]: did not activate

Compound: CC[N+]1([O-])CCN(C2=Nc3ccccc3Nc3ccccc32)CC1 [Compound 23, 4-(5H-Dibenzo[b,e][1,4]diazepin-11-yl)-1-ethylpiperazine N-oxide]
- EC50 [1]: 220 nM
- fold less potent for hM3Dq than compound 5b [1]: about 10 fold
- Emax [1]: 59%
- EC50 [2]: > 30 µM
- agonist activity for hM3 (in words) [2]: did not exhibit any agonist activity

Compound: CC(C)N1CCN(C2=Nc3cc(Cl)ccc3Nc3ccccc32)CC1 [Compound 4c, 8-Chloro-11-(4-isopropylpiperazin-1-yl)-5H-dibenzo[b,e][1,4]diazepine]
- EC50 [1]: 13 nM
- Emax [1]: 45%
- EC50 [2]: > 30 µM
- Ki [3]: 17 nM
- Ki [4]: 37 nM
- Ki [5]: 4.6 nM

Compound: C[N+]1(C)CCN(C2=Nc3cc(Cl)ccc3Nc3ccccc32)CC1.[I-] [Compound 6, 4-(8-Chloro-5H-dibenzo[b,e][1,4]diazepin-11-yl)-1,1-dimethylpiperazin-1-ium iodide]
- EC50 [1]: 0.069 nM
- fold more potent than compound 4a (clozapine) at hM3Dq [1]: about 15 fold
- Emax [1]: 100%
- EC50 [2]: 0.0095 µM
- selectivity for hM3Dq over hM3 [2]: > 100 fold
- Emax [2]: 92%

Compound: CN1CCN(C2=Nc3ccccc3Cc3ccccc32)CC1 [perlapine, reference compound]
- selectivity for hM3Dq over hM3 [2]: > 10 000 fold

Compound: O=C1NC(=O)C2(CCN(C3=Nc4cc(Cl)ccc4Nc4ccccc43)CC2)N1 [Compound 9, 8-(8-Chloro-5H-dibenzo[b,e][1,4]diazepin-11-yl)-1,3,8-triazaspiro[4.5]decane-2,4-dione]
- EC50 [1]: > 30000 nM
- agonist activity for hM3Dq (in words) [1]: did not activate
- EC50 [2]: > 30 µM
- agonist activity for hM3 (in words) [2]: did not activate

Compound: CC(C)[N+]1([O-])CCN(C2=Nc3cc(Cl)ccc3Nc3ccccc32)CC1 [Compound 5c, 4-(8-Chloro-5H-dibenzo[b,e][1,4]diazepin-11-yl)-1-isopropylpiperazine N-oxide]
- EC50 [1]: 190 nM
- Emax [1]: 45%
- EC50 [2]: > 30 µM
- Ki [6]: 5200 nM
- Ki [3]: 6700 nM
- selectivity for hM3Dq over α1A [4]: about 2 fold
- Ki [4]: 320 nM
- Ki [5]: 6200 nM

Compound: CC(=O)N1CCN(C2=Nc3cc(Cl)ccc3Nc3ccccc32)CC1 [Compound 12, 1-(4-(8-Chloro-5H-dibenzo[b,e][1,4]diazepin-11-yl)piperazin-1-yl)ethanone]
- EC50 [1]: > 30000 nM
- agonist activity for hM3Dq (in words) [1]: did not display any agonist activity
- EC50 [2]: > 30 µM
- agonist activity for hM3 (in words) [2]: did not activate

Compound: CCN1CCN(C2=Nc3ccccc3Nc3ccccc32)CC1 [Compound 22, 11-(4-Ethylpiperazin-1-yl)-5H-dibenzo[b,e][1,4]diazepine]
- Emax [1]: 81%
- agonist activity for hM3 (in words) [2]: did not exhibit any agonist activity

Compound: CCC[N+]1([O-])CCN(C2=Nc3cc(Cl)ccc3Nc3ccccc32)CC1 [Compound 5d, 4-(8-Chloro-5H-dibenzo[b,e][1,4]diazepin-11-yl)-1-propylpiperazine N-oxide]
- EC50 [1]: 740 nM
- hM3Dq potency decrease on replacing methyl with n-propyl [1]: ~100 fold
- Emax [1]: 79%
- EC50 [2]: > 30 µM

Compound: CC(=O)OCC[N+](C)(C)C [ACh, acetylcholine, reference compound]
- agonist activity for hM3Dq (in words) [1]: does not activate
- agonist activity for hM3 (in words) [2]: potent hM3 agonist

Compound: c1ccc2c(c1)N=C(N1CCNCC1)c1ccccc1N2 [Compound 21, 11-(Piperazin-1-yl)-5H-dibenzo[b,e][1,4]diazepine]
- EC50 [1]: 1.7 nM
- Emax [1]: 100%
- agonist activity for hM3 (in words) [2]: do not activate; also recorded: inactive
- Emax [2]: ~20%
- selectivity for hM3Dq over 5HT2A [6]: 40 fold
- Ki [6]: 66 nM
- selectivity for hM3Dq over 5HT2C [3]: 100 fold
- Ki [3]: 170 nM
- selectivity for hM3Dq over α1A [4]: 165 fold
- Ki [4]: 280 nM
- selectivity for hM3Dq over H1 [5]: 3.5 fold
- Ki [5]: 6 nM

Compound: CS(=O)(=O)N1CCN(C2=Nc3cc(Cl)ccc3Nc3ccccc32)CC1 [Compound 14, 8-Chloro-11-(4-(methylsulfonyl)piperazin-1-yl)-5H-dibenzo[b,e][1,4]diazepine]
- EC50 [1]: > 30000 nM
- agonist activity for hM3Dq (in words) [1]: did not display any agonist activity
- EC50 [2]: > 30 µM
- agonist activity for hM3 (in words) [2]: did not activate

Compound: CC[N+]1([O-])CCN(C2=Nc3cc(Cl)ccc3Nc3ccccc32)CC1 [Compound 5b, 4-(8-Chloro-5H-dibenzo[b,e][1,4]diazepin-11-yl)-1-ethylpiperazine N-oxide]
- EC50 [1]: 19 nM
- Emax [1]: 50%
- EC50 [2]: > 30 µM
- Ki [6]: 1900 nM
- Ki [3]: 5100 nM
- Ki [4]: > 1000 nM
- selectivity for hM3Dq over H1 [5]: about 8 fold
- Ki [5]: 160 nM
